Data reported in EP2975030B1, “DIHYDROPYRIDAZINE-3,5-DIONE DERIVATIVE” (Chugai Seiyaku Kabushiki Kaisha, priority 2013, dated 2014).

What was measured:
[1] = tested on: rat small-intestinal brush border membrane vesicles; assay: Inhibitory effect on 33PO4 uptake into rat small-intestinal brush border membrane vesicles (rapid filtration method); format: biochemical, Wistar female rat; conditions: 1 µM test compound; 33PO4 uptake into rat small-intestinal BBMVs, 60 seconds
Outline: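 Uptake was terminated by ice-cold 110 mM NaCl, 1 mM KH2PO4, 10 mM HEPES (pH 7.5) buffer and immediate suction filtration, then washing. Using rat small-intestinal BBMVs, retained 33PO4 was quantified by liquid scintillation counting as transport activity.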

[2] = tested on: adenine-induced renal failure rat; assay: Suppressive effect on rise in serum phosphorus concentration of adenine-induced renal failure rat (0.1% in feed, 3 days); format: in vivo, Wistar male rat; conditions: feed or water, 72 h, rate of suppression of a rise in serum phosphorus concentration, 0.1% of mass concentration in feed
Description: Test Example 5: Suppressive effect on rise in serum phosphorus concentration of adenine-induced renal failure rat Adenine was forcedly administered orally to each Wistar male rat (7-8 weeks old) to impair renal functions and thereby prepare a hyperphosphatemia model ([…], Nagano N, Burke SK, Fukushima N. Sevelamer hydrochloride prevents ectopic calcification and renal osteodystrophy in chronic renal failure rats. Kidney Int. 2003 Aug; 64 (2): 441-50). Each test compound was mixed at a ratio of 0.1% of mass concentration with feed. The animal was fed with a given amount of the feed for 3 days. A group given feed non-supplemented with a test compound was used as a reference pathological group, and an adenine-unadministered group given feed non-supplemented with a test compound was used as a normal group. 3 days after the start of administration of the test compound, blood was collected from the jugular vein, and serum was collected. Serum phosphorus concentrations were measured by the Fiske-Subbarow method. The rate of suppression of a rise in serum phosphorus concentration was determined according to the following expression: Rate (%) of suppression of a rise in serum phosphorus concentration = (1-[([…]-treatedpathologicalgroup); -(Serumphosphorusconcentrationofthenormalgroup)]/; [(Serumphosphorusconcentrationofthereferencepathologicalgroup)-(Serumphosphorusconcentrationofthenormalgroup)]) × 100 [formula] As a result, each test compound was confirmed to have a suppressive effect on a rise in serum phosphorus concentration. […]

| Structure (SMILES) | Rate of uptake inhibition (%) (1 µM) [1] | inhibition in vivo at 0.1 %, 0.1 % in feed [2] |
| --- | --- | --- |
| COCCN(C)CCOc1ccc(CN2C(=O)C(C(=O)Nc3ccc(C(F)(F)F)cc3-c3cc(C(F)(F)F)ncn3)=C(O)C3(CCC3)N2C)c(F)c1F [Example 13, 6-[[2,3-Difluoro-4-[2-[2-methoxyethyl(methyl)amino]ethoxy]phenyl]methyl]-9-hydroxy-5-methyl-7-oxo-N-[4-(trifluoromethyl)-2-[6-(trifluoromethyl)pyrimidin-4-yl]phenyl]-5,6-diazaspiro[3.5]non-8-ene-8-carboxamide] | 58% | 25% |
| CN1[C@@H](C(C)(C)C)C(O)=C(C(=O)Nc2ccc(Cl)cc2-c2ccc(C(F)(F)F)nc2)C(=O)N1Cc1ccc(OCCN2CCOCC2)c(F)c1F [Example 267, (3S)-3-tert-Butyl-N-[4-chloro-2-[6-(trifluoromethyl)pyridin-3-yl]phenyl]-1-[[2,3-difluoro-4-(2-morpholin-4-ylethoxy)phenyl]methyl]-4-hydroxy-2-methyl-6-oxo-3H-pyridazine-5-carboxamide] | 71% | 18% |
| CSc1ccc(-c2cc(Cl)ccc2NC(=O)C2=C(O)[C@H](C(C)(C)C)N(C)N(Cc3ccc(OCCN4CCOCC4)c(F)c3F)C2=O)cn1 [Example 269, (3S)-3-tert-Butyl-N-[4-chloro-2-(6-methylsulfanylpyridin-3-yl)phenyl]-1-[[2,3-difluoro-4-(2-morpholin-4-ylethoxy)phenyl]methyl]-4-hydroxy-2-methyl-6-oxo-3H-pyridazine-5-carboxamide] | 80% | 15% |
| CN1[C@@H](C(C)(C)C)C(O)=C(C(=O)Nc2ccc(Cl)cc2-c2cc(C(F)(F)F)ncn2)C(=O)N1Cc1ccc(OCCN2CCOCC2)c(F)c1F [Example 265, (3S)-3-tert-Butyl-N-[4-chloro-2-[6-(trifluoromethyl)pyrimidin-4-yl]phenyl]-1-[[2,3-difluoro-4-(2-morpholin-4-ylethoxy)phenyl]methyl]-4-hydroxy-2-methyl-6-oxo-3H-pyridazine-5-carboxamide] | 52% | 11% |
| CN1N(Cc2ccc(OCCN3CCOCC3)c(F)c2F)C(=O)C(C(=O)Nc2ccc(C(F)(F)F)cc2-c2cc(C(F)(F)F)ncn2)=C(O)C12CCCC2 [Example 318, 7-[[2,3-Difluoro-4-(2-morpholin-4-ylethoxy)phenyl]methyl]-10-hydroxy-6-methyl-8-oxo-N-[4-(trifluoromethyl)-2-[6-(trifluoromethyl)pyrimidin-4-yl]phenyl]-6,7-diazaspiro[4.5]dec-9-ene-9-carboxamide] | 43% | 32% |
| Cc1c(C#N)ncnc1-c1cc(C(F)(F)F)ccc1NC(=O)C1=C(O)[C@H](C(C)(C)C)N(C)N(Cc2ccc(OCCN3CCOCC3)c(F)c2F)C1=O [Example 270, (3S)-3-tert-Butyl-N-[2-(6-cyano-5-methylpyrimidin-4-yl)-4-(trifluoromethyl)phenyl]-1-[[2,3-difluoro-4-(2-morpholin-4-ylethoxy)phenyl]methyl]-4-hydroxy-2-methyl-6-oxo-3H-pyridazine-5-carboxamide] | 75% | 20% |
| COC[C@@H]1CCCN1CCOc1ccc(CN2C(=O)C(C(=O)Nc3ccc(C(F)(F)F)cc3-c3cc(C(F)(F)F)ncn3)=C(O)C3(CCC3)N2C)c(F)c1F [Example 345, 6-[[2,3-Difluoro-4-[2-[(2S)-2-(methoxymethyl)pyrrolidin-1-yl]ethoxy]phenyl]methyl]-9-hydroxy-5-methyl-7-oxo-N-[4-(trifluoromethyl)-2-[6-(trifluoromethyl)pyrimidin-4-yl]phenyl]-5,6-diazaspiro[3.5]non-8-ene-8-carboxamide] | 73% | 19% |
| CN1[C@@H](C(C)(C)C)C(O)=C(C(=O)Nc2ccc(C(F)(F)F)cc2-c2cc(C(F)(F)F)ncn2)C(=O)N1Cc1ccc(OCCN2CCOCC2)c(F)c1F [Example 264, (3S)-3-tert-Butyl-1-[[2,3-difluoro-4-(2-morpholin-4-ylethoxy)phenyl]methyl]-4-hydroxy-2-methyl-6-oxo-N-[4-(trifluoromethyl)-2-[6-(trifluoromethyl)pyrimidin-4-yl]phenyl]-3H-pyridazine-5-carboxamide] | 48% | 15% |
| C[C@]12CCCN1N(Cc1ccc(C#CCN3CCOCC3)c(F)c1F)C(=O)C(C(=O)Nc1ccc(C(F)(F)F)cc1-c1ccc(C(F)(F)F)nc1)=C2O [Example 140, (4aR)-1-[[2,3-Difluoro-4-(3-morpholin-4-ylprop-1-ynyl)phenyl]methyl]-4-hydroxy-4a-methyl-2-oxo-N-[4-(trifluoromethyl)-2-[6-(trifluoromethyl)pyridin-3-yl]phenyl]-6,7-dihydro-5H-pyrrolo[1,2-b]pyridazine-3-carboxamide] | 77% | 39% |
| C[C@]12CCCN1N(Cc1ccc(OCCCCOC[C@H](O)CO)c(F)c1F)C(=O)C(C(=O)Nc1ccc(C(F)(F)F)cc1-c1cc(C(F)(F)F)ncn1)=C2O [Example 152, (4aR)-1-[[4-[4-[(2R)-2,3-Dihydroxypropoxy]butoxy]-2,3-difluorophenyl]methyl]-4-hydroxy-4a-methyl-2-oxo-N-[4-(trifluoromethyl)-2-[6-(trifluoromethyl)pyrimidin-4-yl]phenyl]-6,7-dihydro-5H-pyrrolo[1,2-b]pyridazine-3-carboxamide] | 54% | 26% |
| Cc1c(C#N)ncnc1-c1cc(C(F)(F)F)ccc1NC(=O)C1=C(O)[C@@]2(C)CCCN2N(Cc2ccc(OCCN3CCOCC3)c(F)c2F)C1=O [Example 22, (4aR)-N-[2-(6-Cyano-5-methylpyrimidin-4-yl)-4-(trifluoromethyl)phenyl]-1-[[2,3-difluoro-4-(2-morpholin-4-ylethoxy)phenyl]methyl]-4-hydroxy-4a-methyl-2-oxo-6,7-dihydro-5H-pyrrolo[1,2-b]pyridazine-3-carboxamide] | 50% | 26% |
| C[C@]12CCCN1N(Cc1ccc(OCCCCCCOC[C@H](O)CO)c(F)c1F)C(=O)C(C(=O)Nc1cnc(C(F)(F)F)nc1-c1ccc(C(F)(F)F)nc1)=C2O [Example 156, (4aR)-1-[[4-[6-[(2R)-2,3-Dihydroxypropoxy]hexoxy]-2,3-difluorophenyl]methyl]-4-hydroxy-4a-methyl-2-oxo-N-[2-(trifluoromethyl)-4-[6-(trifluoromethyl)pyridin-3-yl]pyrimidin-5-yl]-6,7-dihydro-5H-pyrrolo[1,2-b]pyridazine-3-carboxamide] | 59% | 21% |
| C[C@]12CCCN1N(Cc1ccc(OCCN3CCOCC3)c(F)c1F)C(=O)C(C(=O)Nc1ccc(C(F)(F)F)cc1-c1cc(C(F)(F)F)ncn1)=C2O [Example 157, (4aR)-1-[[2,3-Difluoro-4-(2-morpholin-4-ylethoxy)phenyl]methyl]-4-hydroxy-4a-methyl-2-oxo-N-[4-(trifluoromethyl)-2-[6-(trifluoromethyl)pyrimidin-4-yl]phenyl]-6,7-dihydro-5H-pyrrolo[1,2-b]pyridazine-3-carboxamide] | 89% | 30% |
| CC(C)[C@H]1C(O)=C(C(=O)Nc2ccc(Cl)cc2-c2ccc(C(F)(F)F)nc2)C(=O)N(Cc2ccc(OCCN3CCOCC3)c(F)c2F)N1C [Example 281] | 41% |  |
| CCN1[C@@H](C(C)(C)C)C(O)=C(C(=O)Nc2cc(F)c(Br)c(F)c2)C(=O)N1Cc1cccc(F)c1F [Example 246] | 52% |  |
| C[C@]12CCCN1N(Cc1cccc(F)c1F)C(=O)C(C(=O)Nc1ccc(C(F)(F)F)cc1-c1ccc(C(F)(F)F)nc1Br)=C2O [Example 85] | 71% |  |
| CN1N(Cc2cccc(F)c2F)C(=O)C(C(=O)Nc2ccc(C(F)(F)F)cc2-c2cc(C(F)(F)F)ncn2)=C(O)C12CCCC2 [Example 260] | 70% |  |
| COc1cc(C)c(-c2cc(C(F)(F)F)ccc2NC(=O)C2=C(O)[C@@]3(C)CCCN3N(Cc3cccc(F)c3F)C2=O)cn1 [Example 80] | 75% |  |
| CN1CCN(CCOc2ccc(CN3C(=O)C(C(=O)Nc4ccc(C(F)(F)F)cc4-c4cc(C(F)(F)F)ncn4)=C(O)C4(CCC4)N3C)c(F)c2F)CC1=O [Example 359] | 37% |  |
